Data on 31 compounds can be found in patent publication US8461181B2, “Fused heterocyclic compound and use thereof” (Sumitomo Chemical Company, Ltd., priority 2009, dated 2013).

In general, pest or weed control refers to the degree to which the test organism was suppressed or injured, in per cent.

Molecules are shown by their SMILES.

One test relates to Aphis gossypii. The test is described as follows: Test Example 4: foot drench of cucumber seedling in plastic cup, inoculation after 7 days, Aphis gossypii. The test is classed as in vivo. Conditions: soil, 144 h, 5 ml drench at foot of cucumber seedling in plastic cup, kept 7 days at 25° C., inoculated, further 6 days. Here is the method: The formulations of the present active compounds (3) to (7), (17), (19), (20), (22), (29) to (31), (35) to (37), (39), (41) to (45), (47) to (56), (101), (106), (121) to (123), (128), (131), (137), (139), (143), (145), (147), (211) to (213), (216) and (217) obtained by Formulation Example 5 were diluted with water so that the active ingredient concentration was 500 ppm, to prepare diluted solutions for test. Separately, a cucumber seedling (second true leaf spreading stage) planted on a plastic cup was drenched at its foot with each 5 ml of the diluted solutions, and kept in a greenhouse of 25° C. for 7 days. The cucumber leaf surface was inoculated with 30 Aphis gossypii (whole stage), and further kept in the greenhouse for 6 days, then, the number of insect of living Aphis gossypii […] on the leaves of this cucumber was checked, and the control value was calculated according to the following formula. Control value (%)={1-(Cb×Tai)/(Cai×Tb)}×100 Letters in the formula represent the following meanings. Cb: the number of insect before treatment on non-treated district Cai: the number of insect in observation on non-treated district Tb: the number of insect before treatment on treated district Tai: the number of insect in observation on treated district
On to `Cn1c(-c2ccncc2SCCF)nc2cc(C(F)(F)F)cnc21` [present active compound 128], for which the pest or weed control at 500 ppm is ≥ 90%.

On to `Cn1c(-c2ccncc2S(C)(=O)=O)nc2cc(C(F)(F)F)ccc21` [present active compound 19, 2-(3-methanesulfonylpyridin-4-yl)-1-methyl-5-trifluoromethyl-1H-benzimidazole], for which the pest or weed control at 500 ppm was ≥ 90%.

As for `COC(=O)c1cnccc1-c1nc2cc(C(F)(F)F)cnc2n1C` [present active compound 143], the pest or weed control at 500 ppm was ≥ 90%.

`CNC(=O)c1cnccc1-c1nc2cc(C(F)(F)F)cnc2n1C` [present active compound 137]: the pest or weed control at 500 ppm was ≥ 90%.

Take `CCOc1cnccc1-c1nc2cc(C(F)(F)F)cnc2n1C` [present active compound 39, 2-(3-ethoxypyridin-4-yl)-3-methyl-6-trifluoromethyl-3H-imidazo[4,5-b]pyridine]: the pest or weed control at 500 ppm was ≥ 90%.

Turning to `Cn1c(-c2ccncc2SCC2CC2)nc2cc(C(F)(F)F)cnc21` [present active compound 145], the pest or weed control at 500 ppm was ≥ 90%.

In the case of `CN(C)S(=O)(=O)c1cnccc1-c1nc2cc(C(F)(F)F)cnc2n1C` [present active compound 131], the pest or weed control at 500 ppm is ≥ 90%.

For `CC(C)Sc1cnccc1-c1nc2cc(C(F)(F)F)cnc2n1C` [present active compound 101], the pest or weed control at 500 ppm was ≥ 90%.

`COCCSc1cnccc1-c1nc2cc(C(F)(F)F)cnc2n1C` [present active compound 147]: the pest or weed control at 500 ppm was ≥ 90%.

A further test has as its system Nilaparvata lugens. The test is described as follows: Test Example 9: foot drench of rice seedling, twenty first instar larvae of Nilaparvata lugens. The following applies: soil, 144 h, 5 ml drench at foot of rice seedling, kept 7 days, twenty first instar larvae released, further 6 days. The test is classed as in vivo. Here is the method: The formulations of the present active compounds (6), (7), (18), (22), (25), (30), (33), (46), (47), (53), (101) to (103), (106), (121) to (124), (126) to (128), (135), (139), (216) and (217) obtained by Formulation Example 5 were diluted with water so that the active ingredient concentration was 500 ppm, to prepare diluted solutions for test. Separately, a rice seedling (2 weeks after sowing, second leaf spreading stage) planted on a plastic cup was drenched at its foot with each 5 ml of the diluted solutions, and kept in a greenhouse of 25° C. for 7 days. Twenty first instar larvae of Nilaparvata lugens were released, and further kept in the greenhouse for 6 days, then, the number of insect of living Nilaparvata lugens […] on rice was checked, and the control value was calculated according to the following formula. Control value (%)={1-(Cb×Tai)/(Cai×Tb)}×100 Letters in the formula represent the following meanings. Cb: the number of insect before treatment on non-treated district Cai: the number of insect in observation on non-treated district Tb: the number of insect before treatment on treated district Tai: the number of insect in observation on treated district
As for `C[S+]([O-])c1cnccc1-c1nc2cc(C(F)(F)F)ccc2n1C1CC1` (stereo not drawn) [present active compound 30, 1-cyclopropyl-2-(3-methanesulfinylpyridin-4-yl)-5-trifluoromethyl-1H-benzimidazole], the pest or weed control at 500 ppm was ≥ 90%.

For the compound `CC[S+]([O-])c1cnccc1-c1nc2cc(C(F)(F)F)ccc2n1C1CC1` (stereo not drawn) [present active compound 33, 1-cyclopropyl-2-(3-ethanesulfinylpyridin-4-yl)-5-trifluoromethyl-1H-benzimidazole], the pest or weed control at 500 ppm was ≥ 90%.

For the next test, the system named is Aphis gossypii. Description: Test Example 3: root immersion of cucumber seedling, Aphis gossypii. The following applies: 168 h, cucumber root part immersed in 5 ml, inoculated one day after treatment, checked seven days after. The test is classed as in vivo. Here is the method: The formulations of the present active compounds (18), (19), (21), (22), (24), (25), (28), (31) to (34), (46), (47), (52), (53), (101) to (104), (106) to (108), (112) to (114), (117), (118), (122), (123), (126), (128), (129), (133), (134), (138), (144), (153) to (155) and (157) obtained by Formulation Example 5 were diluted with water so that the active ingredient concentration was 500 ppm, to prepare diluted solutions for test. A root part of a cucumber seedling (first true leaf spreading stage) from which soil had been washed off was immersed in 5 ml of this diluted solution, and one day after treatment, the cucumber leaf surface was inoculated with 30 Aphis gossypii (whole stage). Further seven days after, the number of insect of living Aphis gossypii […] on the leaves of this cucumber was checked, and the control value was calculated according to the following formula. Control value (%)={1-(Cb×Tai)/(Cai×Tb)}×100 Letters in the formula represent the following meanings. Cb: the number of insect before treatment on non-treated district Cai: the number of insect in observation on non-treated district Tb: the number of insect before treatment on treated district Tai: the number of insect in observation on treated district
For `Cn1c(-c2ccncc2SCCF)nc2cc(C(F)(F)F)cnc21` [present active compound 128], the pest or weed control at 500 ppm was ≥ 90%.

For `C=CCSc1cnccc1-c1nc2cc(C(F)(F)F)ccc2n1C` [present active compound 134], the pest or weed control at 500 ppm is ≥ 90%.

As for `Cn1c(-c2cc[n+]([O-])cc2)nc2cc(C(F)(F)F)ccc21` [present active compound 24, 1-methyl-2-(1-oxypyridin-4-yl)-5-trifluoromethyl-1H-benzimidazole], the pest or weed control at 500 ppm was ≥ 90%.

Regarding `CCNC(=O)c1cnccc1-c1nc2cc(C(F)(F)F)cnc2n1C` [present active compound 138], the pest or weed control at 500 ppm was ≥ 90%.

Regarding `Cn1c(-c2ccncc2S(C)(=O)=O)nc2cc(C(F)(F)F)ccc21` [present active compound 19, 2-(3-methanesulfonylpyridin-4-yl)-1-methyl-5-trifluoromethyl-1H-benzimidazole], the pest or weed control at 500 ppm is ≥ 90%.

With `Fc1cnccc1-c1nc2cc(C(F)(F)F)ccc2n1C1CC1` [present active compound 28, 1-cyclopropyl-2-(3-fluoropyridin-4-yl)-5-trifluoromethyl-1H-benzimidazole], the pest or weed control at 500 ppm is ≥ 90%.

On to `C=CCSc1cnccc1-c1nc2cc(C(F)(F)F)cnc2n1C` [present active compound 133], for which the pest or weed control at 500 ppm is ≥ 90%.

As to `Cn1c(-c2ccncc2SC(F)(F)C(F)F)nc2cc(C(F)(F)F)cnc21` [present active compound 126], the pest or weed control at 500 ppm was ≥ 90%.

On to `Cn1c(-c2ccncc2SC(F)(F)F)nc2cc(C(F)(F)F)ccc21` [present active compound 122], for which the pest or weed control at 500 ppm was ≥ 90%.

As for `CC[S+]([O-])c1cnccc1-c1nc2cc(C(F)(F)F)cnc2n1C` (stereo not drawn) [present active compound 52, 2-(3-ethanesulfinylpyridin-4-yl)-3-methyl-6-trifluoromethyl-3H-imidazo[4,5-b]pyridine], the pest or weed control at 500 ppm is ≥ 90%.

On to `Cn1c(-c2ccncc2SCC(F)F)nc2cc(C(F)(F)F)cnc21` [present active compound 123], for which the pest or weed control at 500 ppm was ≥ 90%.

With `COC(=O)CSc1cnccc1-c1nc2cc(C(F)(F)F)cnc2n1C` [present active compound 157], the pest or weed control at 500 ppm was ≥ 90%.

For `CC[S+]([O-])c1cnccc1-c1nc2cc(C(F)(F)F)ccc2n1C` (stereo not drawn) [present active compound 21, 2-(3-ethanesulfinylpyridin-4-yl)-1-methyl-5-trifluoromethyl-1H-benzimidazole], the pest or weed control at 500 ppm is ≥ 90%.

`Cn1c(-c2ccncc2SCCF)nc2cc(C(F)(F)F)ccc21` [present active compound 129]: the pest or weed control at 500 ppm was ≥ 90%.

With `CCOC(=O)c1cnccc1-c1nc2cc(C(F)(F)F)cnc2n1C` [present active compound 144], the pest or weed control at 500 ppm is ≥ 90%.

The test system of a further test is Nilaparvata lugens. Description: Test Example 8: spray on rice seedling, 20 first instar larvae of Nilaparvata lugens. Conditions: 144 h, 10 ml sprayed on rice seedling, 20 first instar larvae released, 6 days at 25° C. The test is classed as in vivo. Here is the method: The formulations of the present active compounds (6), (7), (18), (21), (24), (25), (28) to (30), (32), (46), (52), (101) to (103), (105) to (107), (111), (112), (115), (119) to (124), (126) to (130), (133) to (135), (139), (142), (144) to (146), (149) to (151), (153), (154), (216) and (217) obtained by Formulation Example 5 were diluted with water so that the active ingredient concentration was 500 ppm, to prepare spray solutions for test. Separately, on a rice seedling (2 weeks after sowing, second leaf spreading stage) planted on a plastic cup, the drug solutions for test prepared as described above were sprayed each in an amount of 10 ml. After drying of the drug solution sprayed on rice, 20 first instar larvae of Nilaparvata lugens were released, and kept in a greenhouse of 25° C. for 6 days. Thereafter, the number of Nilaparvata lugens […] on rice was checked, and the control value was calculated according to the following formula. Control value (%)={1-(Cb×Tai)/(Cai×Tb)}×100 Letters in the formula represent the following meanings. Cb: the number of insect before treatment on non-treated district Cai: the number of insect in observation on non-treated district Tb: the number of insect before treatment on treated district Tai: the number of insect in observation on treated district
`Cn1c(-c2cc[n+]([O-])cc2)nc2cc(C(F)(F)F)ccc21` [present active compound 24, 1-methyl-2-(1-oxypyridin-4-yl)-5-trifluoromethyl-1H-benzimidazole]: the pest or weed control at 500 ppm is ≥ 90%.

With `Cn1c(-c2ccncc2SCC#N)nc2cc(C(F)(F)F)cnc21` [present active compound 153], the pest or weed control at 500 ppm is ≥ 90%.

Take `CCSc1cnccc1-c1nc2cc(C(F)(F)F)ccc2n1C1CC1` [present active compound 32, 1-cyclopropyl-2-(3-ethylthiopyridin-4-yl)-5-trifluoromethyl-1H-benzimidazole]: the pest or weed control at 500 ppm is ≥ 90%.

Consider `Cn1c(-c2ccncc2OCC(C)(C)C)nc2cc(C(F)(F)F)cnc21` [present active compound 111], for which the pest or weed control at 500 ppm is ≥ 90%.

On to `Cn1c(-c2ccncc2C(=O)NCC#N)nc2cc(C(F)(F)F)cnc21` [present active compound 142], for which the pest or weed control at 500 ppm is ≥ 90%.

As for `CC[S+]([O-])c1cnccc1-c1nc2cc(C(F)(F)F)cnc2n1C` (stereo not drawn) [present active compound 52, 2-(3-ethanesulfinylpyridin-4-yl)-3-methyl-6-trifluoromethyl-3H-imidazo[4,5-b]pyridine], the pest or weed control at 500 ppm is ≥ 90%.

On to `CC[S+]([O-])c1cnccc1-c1nc2cc(C(F)(F)F)ccc2n1C` (stereo not drawn) [present active compound 21, 2-(3-ethanesulfinylpyridin-4-yl)-1-methyl-5-trifluoromethyl-1H-benzimidazole], for which the pest or weed control at 500 ppm is ≥ 90%.

Turning to `Cn1c(-c2ccncc2S)nc2cc(C(F)(F)F)cnc21` [present active compound 115], the pest or weed control at 500 ppm was ≥ 90%.

Regarding `CC(C)COc1cnccc1-c1nc2cc(C(F)(F)F)cnc2n1C` [present active compound 112], the pest or weed control at 500 ppm was ≥ 90%.

For `Cn1c(-c2ccncc2SCC#N)nc2cc(C(F)(F)F)ccc21` [present active compound 154], the pest or weed control at 500 ppm was ≥ 90%.
